Experimental data reported in ChEMBL document CHEMBL3862038, “When Does Chemical Elaboration Induce a Ligand To Change Its Binding Mode?” (J Med Chem, 2017).

Target: Heat shock protein HSP90 (Homo sapiens, UniProt P07900+P08238)
Assay: Inhibition of HSP90 (unknown origin)

Kd: 0.8 mM
Compound: COc1cccc(C(=O)NC2CCC3CCC(C2)N3c2ccc(C(=O)NCc3ccccc3)cc2)c1C (stereo unspecified)
